Measured values: US20260201476A1, “METHODS FOR IDENTIFYING RESISTANCE OR RESPONSE TO VENETOCLAX/HYPOMETHYLATING AGENT/ANTI-CD70 AGENT TREATMENT FOR ACUTE MYELOID LEUKEMIA” (The Regents of the University of Colorado, A Body Corporate, priority 2022, published 2026)
Read-outs that look alike come from different tables or passages of the source.

Legend:
newly diagnosed AML = details: 1118 newly diagnosed AML patients, cited from earlier work
AML [1] = details: older previously untreated AML patients; venetoclax in combination with backbone chemotherapy treatments; cited from earlier work
AML [2] = assay: Survival probability of AML subjects by biomarker after venetoclax/azacitidine with or without cusatuzumab (Example 3); format: in vivo, human
Source text: The following is a non-limiting example of analysis showing the response of AML subjects to treatment with a combination of venetoclax and azacitidine, or a combination of venetoclax, azacitidine and cusatuzumab, based on various different biomarkers.
FIGS. 12-15 are a series of graphs showing the survival probability of AML subjects after receiving a combination of venetoclax, azacitidine and cusatuzumab. The left panel of each of FIGS. 12-15 are all subjects for which data was available, and the right panel is a subset of the data presented in the left panel minus the subjects who received at least one stem cell transplant.
FIGS. 16-18 are a series of graphs showing the survival probability of AML subjects after receiving either a combination of venetoclax and azacitidine (top panels) or a combination of venetoclax, azacitidine and cusatuzumab (bottom panels).

In the case of `Nc1ccn([C@@H]2O[C@H](CO)[C@@H](O)[C@@H]2O)c(=O)n1` [cytarabine, 4-amino-1-[(2R,3S,4S,5R)-3,4-dihydroxy-5-(hydroxymethyl)oxolan-2-yl] pyrimidin-2-one], the “5-year OS” value (newly diagnosed AML; ELN 2022 adverse risk group) is listed as 15%, the “5-year OS” value (newly diagnosed AML; ELN 2022 favorable risk group) is listed as 55% and the “5-year OS” value (newly diagnosed AML; ELN 2022 intermediate risk group) is listed as 34%.
For `CC1(C)CCC(CN2CCN(c3ccc(C(=O)NS(=O)(=O)c4ccc(NCC5CCOCC5)c([N+](=O)[O-])c4)c(Oc4cnc5[nH]ccc5c4)c3)CC2)=C(c2ccc(Cl)cc2)C1` [venetoclax, 4-(4-{[2-(4-Chlorophenyl)-4,4-dimethyl-1-cyclohexen-1-yl]methyl}-1-piperazinyl)-N-({3-nitro-4-[(tetrahydro-2H-pyran-4-ylmethyl)amino]phenyl}sulfonyl)-2-(1H-pyrrolo[2,3-b]pyridin-5-yloxy)benzamide], the responses (AML [1]) is given as 60-70%.
In the case of “cusatuzumab: an anti-CD70 monoclonal antibody currently being tested in clinical trials for the treatment of AML”, the “effect of adding cusatuzumab to venetoclax and azacitidine on survival” value (from here on “effect of adding cusatuzumab”) (AML [2]; CD7+ AML (FIG. 16)) is reported as “overcome the poor prognostic significant of CD7+ AML”, the “effect of adding cusatuzumab” value (AML [2]; FIG. 18 (PTPN11), text prints mutated KRAS) is reported as “overcome the poor prognostic significant of mutated KRAS” and the “effect of adding cusatuzumab” value (AML [2]; mutated KRAS (FIG. 17)) is reported as “overcome the poor prognostic significant of mutated KRAS”.
